Measured values from paper PMC11901578, “Polymethoxyflavones and Bone Metabolism” (Nutrients, 2025).
Where two headings read alike, the source gives them in different places.

Key:
HL-60 cells = system: HL-60 cells; parameters: method as in PMID 23225422; conditions: read-out: IC50, anti-proliferative effect on HL-60 cells; cited from earlier work
Raw264.7 = conditions: cited from earlier work
[1] = system: human osteoblastic cell line MG-63; parameters: method as in PMID 34466066; conditions: 10 and 20 μg/mL (approximately 25 and 50 μM); cited from earlier work
human OA chondrocytes = system: human OA chondrocytes; parameters: method as in PMID 30938722; conditions: IL-1-stimulated human OA chondrocytes; cited from earlier work
[2] = system: ectopic bone formation in mice; parameters: method as in PMID 36816515; conditions: collagen sponge disk with BMP-2 (1 μg) and nobiletin (2.5 or 5 μg), fascia of back muscle; cited from earlier work
DMM-OA mice = conditions: cited from earlier work
[3] = system: human umbilical vein endothelial cells (HUVECs); parameters: method as in PMID 22707269; conditions: read-out: IC50, anti-proliferative effect on HUVECs; cited from earlier work
[4] = system: collagen-induced arthritic mice; conditions: cited from earlier work
[5] = system: bone marrow macrophages (BMMs); conditions: 50 μM; cited from earlier work
estrogen receptor-α = estrogen receptor-α (Homo sapiens, UniProt P03372); experiment: Estrogen receptor-binding assay; conditions: unpublished data
Chain of estrogen receptor-α (P03372 whole entry): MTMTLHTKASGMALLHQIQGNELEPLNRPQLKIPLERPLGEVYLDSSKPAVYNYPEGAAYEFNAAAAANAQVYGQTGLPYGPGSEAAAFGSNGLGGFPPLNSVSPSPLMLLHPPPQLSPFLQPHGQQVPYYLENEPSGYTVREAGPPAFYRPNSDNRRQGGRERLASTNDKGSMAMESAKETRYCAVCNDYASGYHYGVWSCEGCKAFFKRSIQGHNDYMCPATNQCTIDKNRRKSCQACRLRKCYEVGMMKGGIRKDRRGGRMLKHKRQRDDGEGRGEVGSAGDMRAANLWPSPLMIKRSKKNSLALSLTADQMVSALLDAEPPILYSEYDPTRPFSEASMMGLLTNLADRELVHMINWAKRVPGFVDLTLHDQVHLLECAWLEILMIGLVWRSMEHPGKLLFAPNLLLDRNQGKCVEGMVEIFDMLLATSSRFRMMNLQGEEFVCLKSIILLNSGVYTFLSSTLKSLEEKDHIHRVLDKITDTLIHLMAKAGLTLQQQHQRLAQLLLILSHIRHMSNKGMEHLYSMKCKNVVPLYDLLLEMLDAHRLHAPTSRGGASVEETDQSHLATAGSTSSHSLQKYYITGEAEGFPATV
Source text: (§1) An anticipated adverse effect of long-term flavonoid supplementation is an estrogen-like effect. Although isoflavones, such as genistein and daidzein, have estrogenic effects via binding to estrogen receptors, there are no reports on polymethoxyflavones. […] On the other hand, excessive long-term intake of PMFs may indicate some toxicity, since a high concentration of PMFs may lead to inhibited cell growth or cell death in various cell types, including osteoblasts, endothelial cells, and cancer cell lines.

estrogen receptor-β = estrogen receptor-β (Homo sapiens, UniProt Q92731); experiment: Estrogen receptor-binding assay; conditions: unpublished data
Chain of estrogen receptor-β (Q92731 whole entry): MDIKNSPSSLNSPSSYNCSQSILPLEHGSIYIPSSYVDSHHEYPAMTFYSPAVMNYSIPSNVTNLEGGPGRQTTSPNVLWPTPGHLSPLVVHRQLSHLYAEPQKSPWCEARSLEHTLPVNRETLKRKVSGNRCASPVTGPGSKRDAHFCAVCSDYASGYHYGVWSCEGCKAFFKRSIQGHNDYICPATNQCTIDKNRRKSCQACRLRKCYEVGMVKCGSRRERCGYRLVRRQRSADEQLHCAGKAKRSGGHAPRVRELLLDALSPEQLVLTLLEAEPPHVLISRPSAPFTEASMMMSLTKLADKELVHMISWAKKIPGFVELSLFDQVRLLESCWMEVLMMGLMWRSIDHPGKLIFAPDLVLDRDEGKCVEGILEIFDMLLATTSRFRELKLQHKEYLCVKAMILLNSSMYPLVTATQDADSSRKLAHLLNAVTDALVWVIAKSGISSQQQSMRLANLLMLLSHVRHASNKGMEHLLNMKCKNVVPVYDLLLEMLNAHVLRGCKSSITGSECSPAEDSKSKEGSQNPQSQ
Source text: as §1

[6] = system: bone resorption in mouse bone organ cultures; parameters: method as in PMID 21258168, PMID 22850615; conditions: 60 μM; cited from earlier work
[7] = system: human periodontal ligament cells (HPDLCs); conditions: 12.5, 25, 50, and 100 μM, TNF- or IL-1-stimulated HPDLCs; cited from earlier work
[8] = system: MH7A human fibroblast-like synoviocytes (FLS); parameters: method as in PMID 31978425; conditions: 50 μM; cited from earlier work
zebrafish embryos = system: zebrafish embryos; parameters: method as in PMID 22707269; conditions: 30 μM, cited from earlier work
[9] = system: osteoclast differentiation in co-cultures of osteoblasts and bone marrow cells; conditions: cited from earlier work
[10] = system: NF-κB signaling in chondrocytes; parameters: method as in PMID 31214026; conditions: 10, 20, and 40 μM; cited from earlier work
[11] = system: PGE2 production in osteoblasts; parameters: method as in PMID 21258168, PMID 22850615; conditions: with downregulation of COX-2; cited from earlier work
[12] = system: ovariectomized (OVX) mice; conditions: cited from earlier work
IKKβ = system: IKKβ; parameters: method as in PMID 21258168, PMID 22850615; conditions: in vitro kinase assay; cited from earlier work
[13] = system: bone resorption in mouse calvarial or alveolar bone organ cultures; conditions: 30 μM, bone organ cultures; cited from earlier work
[14] = system: osteoclast differentiation in co-culture system; conditions: 30 μM, cited from earlier work
[15] = system: alveolar bone loss in mice; conditions: cited from earlier work; for alveolar bone loss in mice, restored: LPS +; for decrease of alveolar bone mineral density (ABMD): co-injection with LPS (25 μg/mouse/day), three times every other day, LPS alone 9%
[16] = intraperitoneal 50 μM for 9 weeks
[17] = intraperitoneal 2 mg/mouse/day (approximately 67 mg/kg) for 4 weeks, Sham mice as 100%
[18] = subcutaneous 0.25 mg/day by mini-osmotic pump for 4 weeks

For `COc1ccc(-c2cc(=O)c3c(OC)c(OC)c(OC)c(OC)c3o2)cc1OC` [Nobiletin, 3′,4′,5,6,7,8-Hexamethoxyflavone], the IC50 (HL-60 cells) is given as 52 µM, the RANKL-induced osteoclast differentiation (Raw264.7; 4, 20, and 50 μM, Raw264.7) is given as “suppressed RANKL-induced osteoclast differentiation in a dose-dependent manner” and the “osteoclast differentiation in Raw264.7 cultures, inhibited” value (Raw264.7; RANKL +, 30 μM) is given as 86% inhibited [8]. The IC50 (Raw264.7; RANKL +, read-out: IC50, osteoclast differentiation in Raw264.7 cultures) was 8 µM, the “osteoblast differentiation and mineralization” value [1] was “promoted osteoblast differentiation and mineralization in a dose-dependent manner” and the “overproduction of inflammatory mediators (PGE2, NO, COX-2, iNOS, TNF-α, IL-6, MMPs)” value (human OA chondrocytes) was “significantly suppressed”. The “increase of bone formation (BV/TV) relative to BMP-2 alone” value [2] was 33%, the “cartilage destruction and synovitis” value (DMM-OA mice; DMM-OA mice, intraperitoneal 20 mg/kg every 2 days for 8 weeks) was “inhibited cartilage destruction and synovitis” and the “cartilage destruction and subchondral bone thickening” value (DMM-OA mice; DMM-OA model mice) was “prevented cartilage destruction and thickening of the subchondral bone”. The IC50 [3] was 62 µM, the “gene expression and production of aggrecanase-1 and -2” value ([4]; collagen-induced arthritic mice) was “downregulate” and the “decrease of severity of arthritis” value ([4]; intraperitoneal 15, 30, and 60 mg/kg) was 45%. The “cytotoxicity to bone marrow macrophages (BMMs)” value [5] was “cytotoxic”, the “binding to estrogen receptor-α” value (estrogen receptor-α) was “unable to bind” and the “binding to estrogen receptor-β” value (estrogen receptor-β) was “unable to bind”. For the same compound, the IL-1-induced bone resorption [6] was “completely suppressed”, the “expression of inflammatory cytokines (CXCL10, CCL2, IL-8), MMP-1, MMP-3, and COX-2” value [7] was “dose-dependently reduced” and the IL-21-mediated inflammatory response [8] was “suppressed”. For the same compound, the “anti-angiogenic effect on zebrafish embryos, inhibited” value (zebrafish embryos; listed as nobiletin) was ~63%, the “anti-angiogenic effect on zebrafish embryos, inhibited” value (zebrafish embryos) was 63% inhibited [47] and the “inhibition of IL-1-induced osteoclast differentiation” value ([9]; 10 μM) was 20%. For the same compound, the “inhibition of IL-1-induced osteoclast differentiation” value ([9]; 30 μM) was 85%, the “inhibition of IL-1-induced osteoclast differentiation” value ([9]; 60 μM) was 100% and the IC50 ([9]; IL-1 +, read-out: IC50, osteoclast differentiation in co-culture system) was 33 µM. For the same compound, the “IL-1-induced NF-κB signaling” value [10] was “inhibited IL-1-induced NF-κB signaling in a dose-dependent manner”, the PGE2 production [11] was “suppressed” and the “effect on body weight and the uterus” value [12] was “without affecting body weight and the uterus”. For the same compound, the BMD restored [12, 16] was 4.5%, the BV/TV restored [12, 16] was 16% and the “trabecular separation (Tb.Sp) restored” value [12, 16] was 30%. For the same compound, the “bone mineral density (BMD) of the femur restored” value [12, 17] was 6%, the “bone volume/tissue volume (BV/TV) of the femur restored” value [12, 17] was 34% and the “trabecular BMD in the distal femur restored” value ([12]; oral 50 and 100 mg/kg for 12 weeks, similar effects at both dosages) was 8%. For the same compound, the “distal BMD in the femur restored” value [12, 18] was 5%, the “whole BMD in the femur restored” value [12, 18] was 4% and the IKKβ kinase activity (IKKβ) was “directly inhibited”. For the same compound, the LPS-induced bone-resorbing activity [13] was “significantly suppressed”, the LPS-induced osteoclast differentiation ([14]; co-cultures) was “significantly suppressed” and the “osteoclast differentiation in co-culture system, inhibited” value ([14]; LPS +) was 70% inhibited [8]. The “alveolar bone loss in mice, restored” value ([15]; 30 μg/mouse) was 5% restored [8], the “alveolar bone loss in mice, restored” value ([15]; 100 μg/mouse) was 6% restored [8] and the “alveolar bone loss in mice, restored” value ([15]; 300 μg/mouse) was 9% restored [8]. For the same compound, the “decrease of alveolar bone mineral density (ABMD)” value (“decrease … (ABMD)” below) ([15]; 3 μg/mouse/day) was 3%, the “decrease … (ABMD)” value ([15]; 100 μg/mouse/day) was 4% and the “decrease … (ABMD)” value ([15]; 300 μg/mouse/day) was 1%.
